Measurements as given in US8993717B2, “Gadd45beta targeting agents” (Imperial Innovations Limited, priority 2009, dated 2015).
Read-outs that look alike come from different tables or passages of the source. Square brackets hold non-standard residues; d marks the D form. Peptide text beside a SMILES is read from it. * marks the point of attachment. Cbz = O=C(OCc1ccccc1)*

How the values were obtained:
[1] = biological target: T1, Gadd45β/MKK7 interaction (Homo sapiens, UniProt O14733); test: ELISA competition assay after 48-hr pre-incubation with human serum at 37° C.; assay type: binding; details: for stability after pre-incubation with human serum: result in words
T1 construct: The GST-fused full-length kinase was coated for 16 h at 4° C., at a concentration of 42 nM; made in house
T1 sequence (O14733 1-419): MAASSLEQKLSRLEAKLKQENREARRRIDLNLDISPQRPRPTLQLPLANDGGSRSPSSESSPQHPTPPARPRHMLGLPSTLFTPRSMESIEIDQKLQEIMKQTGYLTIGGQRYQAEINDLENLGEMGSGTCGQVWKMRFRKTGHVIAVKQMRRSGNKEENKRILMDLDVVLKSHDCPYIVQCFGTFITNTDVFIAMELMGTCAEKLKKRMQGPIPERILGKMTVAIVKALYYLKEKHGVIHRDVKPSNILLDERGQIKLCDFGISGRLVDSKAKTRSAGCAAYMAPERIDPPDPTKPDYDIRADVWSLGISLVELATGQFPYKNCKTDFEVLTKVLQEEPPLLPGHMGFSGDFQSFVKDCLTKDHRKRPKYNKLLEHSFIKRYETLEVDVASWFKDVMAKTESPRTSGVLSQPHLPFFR
Method: In FIG. 4, Gadd45β/MKK7 binding, competition ELISA assays were carried out to determine the stability of Z-conjugated D-tetrapeptides in human serum. […] ELISA were performed as described in FIG. 3 C. Briefly, 100 μl of 42 nM of recombinant GST-MKK7 in ELISA buffer (25 mM Tris pH 7.5, 150 mM NaCl, 1 mM DTT, 1 mM EDTA) were coated onto wells of 96-well plates by overnight incubation at 4° C. After blocking with 2% of NFDM for 1 hr at 37° C., plates were washed with TPBS, and then 21 nM of recombinant, biotinylated human (h)Gadd45β were added to the wells together with increasing concentrations of tetrapeptides which had either been subjected or had not been subjected to pre-incubation with human serum, as indicated. For a further discussion of the conditions used for the competition ELISA assay, the reader is directed to Tornatore et al 2008 JMB, 378: 97-111 and the references therein.

[2] = test system: KMS12 multiple myeloma cells; test: [3H]thymidine incorporation assay in KMS12; assay type: cell-based, human; details: read-out: IC50 [H^3] thymidine incorporation assay in KMS12
Method: The effects of Z-DTPs on the survival/proliferation of multiple myeloma cells were evaluated by the use of [^3H]thymidine) incorporation assays, performed as also described in Example 8. The amount of cell proliferation measured with each of the Z-DTPs' concentrations used and with the untreated cultures (i.e. cultures incubated with medium alone), was expressed as counts per minute (c.p.m.)—which directly correlate with the extent of cell proliferation. All experiments were performed in triplicate.
In these latter assays, the effects of Z-DTPs, Ac-DTPs and Z-LTPs on the survival/proliferation of tumour cell lines was investigated by measuring DNA synthesis using standard tritiated thymidine ([^3H]thymidine; [^3H]-TdR) uptake assays. In the analyses shown, cells were incubated for 24, 72, 120 or 144 hrs at 37° C. in the presence or absence of control or bioactive tetrapeptides, as indicated, then subjected to an additional incubation for 18 hrs with [^3H]-TdR (0.037 MBq/well, equivalent to 0.5 μCi/well). Cells were subsequently harvested onto glass fibre filter mats using a 96-well plate automated cell harvester, after which scintillation fluid was added, and [^3H]thymidine incorporation measured by liquid scintillation spectroscopy on a beta counter. The results are expressed as the percentages of the counts per minute (c.p.m.) (directly correlating with the extent of cell proliferation) measured with tetrapeptide-treated cultures relative to the c.p.m. measured with the corresponding cultures incubated with medium alone (untreated cells). All experiments were performed in triplicate.

[3] = biological target: T1, Gadd45β/MKK7 interaction; test: Co-immunoprecipitation assay, lysates of HEK-293 cells expressing HA-Gadd45β and FLAG-MKK7; assay type: binding; details: 1 or 5 nM peptide
Method: Human Embryonic Kidney (HEK-293) were cultured in Dulbecco's modified Eagle's medium (DMEM) supplemented with 10% fetal calf serum (FCS), 100 units/ml penicillin, […] streptomycin, and 1% glutamine. HEK-293 cells (2.2×10^6) were seeded onto 10 cm^2 tissue-culture dishes, and the following day, were transfected with pcDNA-FLAG-MKK7 and pcDNA-HA-Gadd45β plasmids, using a standard Ca3(PO4)2 precipitation technique (Papa, S et al., (2004) Nat. Cell Biol. 6, 146-153). Forty-eight hours after transfection, the cells were washed once with PBS, then resuspended and incubated for 30 min at 4° C. in lysis buffer (20 mM HEPES, 350 mM NaCl, 20% glycerol, 1 mM MgCl2, 0.2 mM EGTA, 1 mM DTT, 1 mM Na3VO4, and 50 mM NaF) supplemented with protease inhibitors (1 mM phenylmethylsulfonylfluoride, 10 μM chymostatin, 2 μg/ml aprotinin, and 2 μg/ml leupeptin) with occasional gentle shaking. The lysed cells were collected and then centrifuged at 45,000×g for 40 min. The resulting cleared cell lysates were used for further analysis.
Immunoprecipitations were performed using essentially the same conditions described in Papa, S et al., (2004) Nat. Cell Biol. 6, 146-153 and the references therein, and an anti-FLAG antibody which precipitated FLAG-tagged MKK7. […]

[4] = biological target: T2, MKK7 (Homo sapiens, UniProt O14733); test: MKK7 kinase assay in the absence of Gadd45β; assay type: biochemical; details: 1 nM or 5 nM peptide
T2 construct: expressed in transfected cells; host or cells: HEK-293
T2 sequence (O14733 1-419): T1 sequence (O14733 1-419)
Method: In FIG. 6, transient transfection of pcDNA-FLAG-MKK7 in HEK-293 cells was performed using the method of Ca3(PO4)2 precipitation, essentially as described in Papa, S et al., (2004) Nat. Cell Biol. 6, 146-153 and references therein. 36 hrs after transfection, the cells were treated with 100 ng/ml phorbol 12-myristate 13-acetate (PMA) and 1 μM ionomycin for 30 min at 37° C. Cell extracts were prepared as described in example 4 and used for immunoprecipitation with anti-FLAG antibodies (binding to FLAG-MKK7) as described in Papa, S et al., (2004) Nat. Cell Biol. 6, 146-153 and references therein. Briefly, 50 μg of cell lysate from PMA-ionomycin (P/D-treated or untreated, HEK-293 cells transiently expressing FLAG-MKK7 was incubated with 10 μl of anti-FLAG M2 Affinity Gel (SIGMA) for 4 hrs at 4° C. during rotation. The immunoprecipitates were then washed 3 times in lysis buffer and twice more in kinase buffer (10 mM HEPES, 5 mM MgCl2, 1 mM MnCl2,12.5 mM β-glycerophosphate, 2 mM DTT, 4 mM NaF and 0.1 mM Na3VO4). MKK7 catalytic activity was finally measured in kinase assays by incubating FLAG-MKK7 immunoprecipitates at 30° C. for 20 min with 20 μl of kinase buffer containing 2 μM of recombinant GST-JNK1 and 5 μCi of [γ-^32P]ATP) (kinase reaction), as described in Papa, S et a., (2004) Nat. Cell Biol. 6, 146-153 and references therein. […]

For NC(=O)[C@@H](Cc1ccccc1)NC(=O)[C@@H](Cc1c[nH]cn1)NC(=O)[C@@H](CC(=O)O)NC(=O)[C@@H](Cc1ccc(O)cc1)NC(=O)OCc1ccccc1 [Compound 1, Z-Tyr-Asp-His-Phe-NH2] (Cbz-[dY][dD][dH][dF]-NH2), the IC50 [1] was 0.19 nM and the “stability after pre-incubation with human serum” value [1] was “completely stable”.
In the case of N=C(N)NCCC[C@@H](NC(=O)[C@@H](CCC(=O)O)NC(=O)[C@@H](Cc1ccc(O)cc1)NC(=O)OCc1ccccc1)C(=O)N[C@H](Cc1ccccc1)C(N)=O [Compound 9, Z-D-Tyr-D-Glu-D-Arg-D-Phe-NH2] (Cbz-[dY][dE][dR][dF]-NH2), the IC50 [1] is reported as 0.18 nM, the “stability after pre-incubation with human serum” value [1] is reported as “completely stable” and the IC50 ([2]; Day 1) is reported as 1300 nM. For the same compound, the IC50 ([2]; Day 3, listed as Z-DTP2) was 144 nM, the IC50 ([2]; Day 3) was 141 nM and the IC50 ([2]; Day 6) was 66 nM.
Compound CC(=O)N[C@H](Cc1ccc(O)cc1)C(=O)N[C@H](CCCNC(=N)N)C(=O)N[C@H](Cc1ccccc1)C(N)=O [Compound 17, Ac-D-Tyr-D-Arg-D-Phe-NH2] (Ac-[dY]-[dR]-[dF]-NH2) has an IC50 ([2]; Day 1) of 354 nM, an IC50 ([2]; Day 3) of 81 nM and an IC50 ([2]; Day 6, listed as mDTP3) of 25 nM. The IC50 ([2]; Day 6) was 16 nM.
In the case of CC(=O)N[C@H](Cc1ccc(O)cc1)C(=O)N[C@H](CC(=O)O)C(=O)N[C@H](Cc1c[nH]cn1)C(=O)N[C@H](Cc1ccccc1)C(N)=O [DTP1, Acetyl-(D-Tyr)-(D-Asp)-(D-His)-(D-Phe)-NH2] (Ac-[dY][dD][dH][dF]-NH2), the “disruption of the Gadd45β/MKK7 interaction in co-immunoprecipitation” value [3] is reported as “no or very little Gadd45β” and the “inhibition of MKK7 catalytic activity in the absence of Gadd45β” value [4] is reported as “nor the active tetrapeptides, DTP1 and DTP2, afforded any inhibition”.
In the case of CC(=O)N[C@H](Cc1ccc(O)cc1)C(=O)N[C@H](CCC(=O)O)C(=O)N[C@H](CCCNC(=N)N)C(=O)N[C@H](Cc1ccccc1)C(N)=O [DTP2, Acetyl-(D-Tyr)-(D-Glu)-(D-Arg)-(D-Phe)-NH2] (Ac-[dY][dE][dR][dF]-NH2), the “disruption of the Gadd45β/MKK7 interaction in co-immunoprecipitation” value [3] is reported as “no or very little Gadd45β” and the “inhibition of MKK7 catalytic activity in the absence of Gadd45β” value [4] is reported as “nor the active tetrapeptides, DTP1 and DTP2, afforded any inhibition”.
